Values quoted from earlier work as cited in patent US9562052B2, “Bicyclicpyridine derivatives” (Hoffmann-La Roche Inc., priority 2012, dated 2017).

Compound: CCc1c(-c2ccccc2)c(-c2ccccc2)nn1-c1ccccc1-c1cccc(OCC(=O)O)c1 [BMS309403]
- body weight and energy consumption (ob/ob mice): no change
- hepatic steatosis (ob/ob mice): reduction
- glucose uptake in muscle and adipose (ob/ob mice; clamp study): increased
- hepatic glucose production (ob/ob mice; clamp study): reduction
- atherosclerotic plaques formation (ApoE KO mice): decrease
